Reference: patent US20250236616A1, “IMMUNOMODULATING AZALIDES” (Zoetis Services LLC, priority 2021, published 2025)

system: TNF-α; test: Whole bovine blood assay, LPS-induced TNF-α; format: cell-based; conditions: fresh whole bovine blood, LPS stimulant; top drug concentration 250 μM
Procedure: Whole Blood Assay-Fresh whole bovine blood samples were collected into heparinized vacutainer tubes. Assay plates were prepared with 25 μL of drug diluted in PBS at varying concentration in 96 round bottom wells, then 225 μL of blood was added and plates incubated at 37° C. for 4 hours. Cells were stimulated with LPS (or PBS for controls) by adding 25 μL to the plates at a final concentration of 1 μg/mL and incubated at 37° C. for 18 hours. To collect plasma, plates were centrifuged at 2,000×g for 10 minutes and 100 μL of supernatant was transferred to a 96 well polypropylene plate that was sealed and stored at −80° C. Samples were assayed for cytokines using the Meso Scale Discovery (MSD) platform (described below). This same MSD platform was used to assess cytokines in the plasma collected directly from drug treated animals.
Cytokine Detection—An MSD U-Plex cytokine assay was developed following the MSD U-Plex protocol guide and included biotinylated capture antibodies against: bovine Interleukin (IL)-1β (Biorad), bovine IL-6 (R&D Systems) and bovine tumor necrosis factor (TNF)-α (R&D Systems). […] Assay calibrators (Kingfisher) were diluted to a concentration of […] in control lithium heparin plasma, followed by 4-fold serial dilutions into plasma. […] Antibodies were used at the following concentrations: anti-IL-1β at 1 μg/mL, anti-IL-6 at 1 μg/mL and anti-TNF-α at 0.5 μg/mL. Cytokines were quantified according to manufacturer's instructions using a chemiluminescent readout. In brief, 0.5 mL of all biotinylated antibodies were diluted to 10 μg/mL with Diluent 100 and paired to their respective linkers by adding 750 μL of supplied Linker solution and incubated for 30 minutes followed by addition of Stop solution for another 30 minutes. The linked antibodies were then diluted 10-fold into Stop solution. Plates were coated by adding 50 μL of antibody solutions per well and incubated covered and shaking for 1 hour at room temperature. Plates were washed three times with PBS/Tween20 prior to samples or standards being added at 30 μL per well and incubated as above. Plates were washed three times before detection antibodies were added along with 2% goat and rabbit serum to block and incubated same as above. Plates were washed a further three times before addition of 150 μL 2X Read buffer and read immediately on the SI6000 instrument (MSD). For soluble protein levels, a BCA protein kit (Thermofisher) was used. The cytokine concentrations (pg/mL) were normalized to the total protein levels for each sample. [Bassel et. al., BMC Veterinary Research (2020) 16:168]
Therefore, a fresh whole bovine blood assay was developed with LPS as a stimulant (TLR-4 agonist) and with IL-1β and TNF-α as the read-out. Compounds of the invention were evaluated against a positive control for their ability to inhibit LPS-induced IL-1β and TNF-α as an overall evaluation of relative potency and modulation of target pathways.
TNFα is a cell signaling protein, cytokine, that plays a key role in both acute and chronic inflammation. In the bovine whole blood in vitro screening assay the inhibition of TNFα as induced by stimulation by lipopolysaccharide (LPS) and as measured by half the maximal inhibitory concentration (IC50) is recognized as the primary biomarker of immunomodulation potency upon pretreatment with the compounds of the invention. IL-1 B is a mediator of the inflammation response and is involved in a number of cellular activities including proliferation, differentiation and apoptosis. IL-1ß is also released upon cellular stress or cytotoxicity or upon TLR stimulation. […] In order to estimate a therapeutic index from the in vitro assay a differential between the TNFα IC50 (immunomodulation potency) versus the perceived cellular toxicity concentration (IL-1β release or overstimulation) was utilized.

For `CC[C@H]1OC(=O)[C@H](C)[C@@H](O[C@H]2C[C@@](C)(OC)[C@](O)(CNc3ccccc3)[C@H](C)O2)[C@H](C)[C@@H](O[C@@H]2O[C@H](C)C[C@H](N(C)S(=O)(=O)Nc3ccc(C(F)(F)F)cc3)[C@H]2O)[C@](C)(O)C[C@@H](C)CN[C@H](C)[C@@H](O)[C@]1(C)O` [Example B-64], which IC50 is on record?
The IC50 was 8 µM.

Which IC50 does the source give for `CCCNC[C@]1(O)[C@H](C)O[C@@H](O[C@H]2[C@H](C)[C@@H](O[C@@H]3O[C@H](C)C[C@H](N(C)S(=O)(=O)c4ccccc4NC4CC4)[C@H]3O)[C@](C)(O)C[C@@H](C)CN[C@H](C)[C@@H](O)[C@](C)(O)[C@@H](CC)OC(=O)[C@@H]2C)C[C@@]1(C)OC` [Example B-63] here?
Its IC50 is 9 µM.

With `CC[C@H]1OC(=O)[C@H](C)[C@@H](O[C@H]2C[C@@](C)(OC)[C@](O)(CN3CCCCC3)[C@H](C)O2)[C@H](C)[C@@H](O[C@@H]2O[C@H](C)C[C@H](N(C)S(=O)(=O)c3ccc(C(F)(F)F)cc3)[C@H]2O)[C@](C)(O)C[C@@H](C)CN[C@H](C)[C@@H](O)[C@]1(C)O` [Example C-18] as the compound, how does the IC50 read?
Its IC50 is 6 µM.

With `CC[C@H]1OC(=O)[C@H](C)[C@@H](O[C@H]2C[C@@](C)(OC)[C@](O)(CNCCCOC)[C@H](C)O2)[C@H](C)[C@@H](O[C@@H]2O[C@H](C)C[C@H](N(C)S(=O)(=O)Nc3ccc(C(F)(F)F)cc3)[C@H]2O)[C@](C)(O)C[C@@H](C)CN[C@H](C)[C@@H](O)[C@]1(C)O` [Example B-78] as the compound, how does the IC50 read?
The IC50 was 21 µM.

With `CC[C@H]1OC(=O)[C@H](C)[C@@H](O[C@H]2C[C@@](C)(OC)[C@](O)(CN3CCCCC3)[C@H](C)O2)[C@H](C)[C@@H](O[C@@H]2O[C@H](C)C[C@H](N(C)S(=O)(=O)Nc3ccc(Br)cc3)[C@H]2O)[C@](C)(O)C[C@@H](C)CN[C@H](C)[C@@H](O)[C@]1(C)O` [Example C-29] as the compound, how does the IC50 read?
Its IC50 is 14 µM.

`CC[C@H]1OC(=O)[C@H](C)[C@@H](O[C@H]2C[C@@](C)(OC)[C@](O)(CN3CCCCC3)[C@H](C)O2)[C@H](C)[C@@H](O[C@@H]2O[C@H](C)C[C@H](N(C)S(=O)(=O)Nc3ccc(Cl)c(C(F)(F)F)c3)[C@H]2O)[C@](C)(O)C[C@@H](C)CN[C@H](C)[C@@H](O)[C@]1(C)O` [Example C-31] was tested. Which IC50 did it give?
Its IC50 is 8 µM.

`CC[C@H]1OC(=O)[C@H](C)[C@@H](O[C@H]2C[C@@](C)(OC)[C@](O)(CN3CCCCC3)[C@H](C)O2)[C@H](C)[C@@H](O[C@@H]2O[C@H](C)C[C@H](N(C)S(=O)(=O)Nc3ccccc3)[C@H]2Oc2ccccc2)[C@](C)(O)C[C@@H](C)CN[C@H](C)[C@@H](O)[C@]1(C)O` [Example C-52] was tested. Which IC50 did it give?
Its IC50 is 15 µM.

`CC[C@H]1OC(=O)[C@H](C)[C@@H](O[C@H]2C[C@@](C)(OC)[C@](O)(CNCCOC)[C@H](C)O2)[C@H](C)[C@@H](O[C@@H]2O[C@H](C)C[C@H](N(C)S(=O)(=O)Nc3ccc(C(F)(F)F)cc3)[C@H]2O)[C@](C)(O)C[C@@H](C)CN[C@H](C)[C@@H](O)[C@]1(C)O` [Example B-84] was tested. Which IC50 did it give?
Its IC50 is 51 µM.

`CC[C@H]1OC(=O)[C@H](C)[C@@H](O[C@H]2C[C@@](C)(OC)[C@](O)(CN3CCc4ccccc4C3)[C@H](C)O2)[C@H](C)[C@@H](O[C@@H]2O[C@H](C)C[C@H](N(C)S(=O)(=O)c3ccc(Cl)cc3)[C@H]2O)[C@](C)(O)C[C@@H](C)CN[C@H](C)[C@@H](O)[C@]1(C)O` [Example C-10] was tested. Which IC50 did it give?
The IC50 was 23 µM.

How did the IC50 turn out when `CC[C@H]1OC(=O)[C@H](C)[C@@H](O[C@H]2C[C@@](C)(OC)[C@](O)(CN3CCCCC3)[C@H](C)O2)[C@H](C)[C@@H](O[C@@H]2O[C@H](C)C[C@H](N(C)S(=O)(=O)Nc3ccccc3)[C@H]2Oc2ccc(F)cc2)[C@](C)(O)C[C@@H](C)CN[C@H](C)[C@@H](O)[C@]1(C)O` [Example C-51] was run?
The IC50 was 9 µM.

Which IC50 does the source give for `CC[C@H]1OC(=O)[C@H](C)[C@@H](O[C@H]2C[C@@](C)(OC)[C@](O)(CNC3CCCC3)[C@H](C)O2)[C@H](C)[C@@H](O[C@@H]2O[C@H](C)C[C@H](N(C)S(=O)(=O)c3ccc(Cl)cc3)[C@H]2O)[C@](C)(O)C[C@@H](C)CN[C@H](C)[C@@H](O)[C@]1(C)O` [Example B-22] here?
Its IC50 is 9 µM.

With `CC[C@H]1OC(=O)[C@H](C)[C@@H](O[C@H]2C[C@@](C)(OC)[C@](O)(CN3CCCCC3)[C@H](C)O2)[C@H](C)[C@@H](O[C@@H]2O[C@H](C)C[C@H](N(C)S(=O)(=O)Nc3ccc(I)cc3)[C@H]2O)[C@](C)(O)C[C@@H](C)CN[C@H](C)[C@@H](O)[C@]1(C)O` [Example C-30] as the compound, how does the IC50 read?
Its IC50 is 9 µM.

For `CC[C@H]1OC(=O)[C@H](C)[C@@H](O[C@H]2C[C@@](C)(OC)[C@](O)(CNCCC3CCOCC3)[C@H](C)O2)[C@H](C)[C@@H](O[C@@H]2O[C@H](C)C[C@H](N(C)S(=O)(=O)Nc3ccc(C(F)(F)F)cc3)[C@H]2O)[C@](C)(O)C[C@@H](C)CN[C@H](C)[C@@H](O)[C@]1(C)O` [Example B-66], which IC50 is on record?
Its IC50 is 30 µM.

How did the IC50 turn out when `CC[C@H]1OC(=O)[C@H](C)[C@@H](O[C@H]2C[C@@](C)(OC)[C@](O)(CNCC3CC3)[C@H](C)O2)[C@H](C)[C@@H](O[C@@H]2O[C@H](C)C[C@H](N(C)S(=O)(=O)c3ccc(Cl)cc3)[C@H]2O)[C@](C)(O)C[C@@H](C)CN[C@H](C)[C@@H](O)[C@]1(C)O` [Example B-24] was run?
The IC50 was 10 µM.

Which IC50 does the source give for `CC[C@H]1OC(=O)[C@H](C)[C@@H](O[C@H]2C[C@@](C)(OC)[C@](O)(CNc3ccccc3)[C@H](C)O2)[C@H](C)[C@@H](O[C@@H]2O[C@H](C)C[C@H](N(C)S(=O)(=O)c3ccc(Cl)cc3)[C@H]2O)[C@](C)(O)C[C@@H](C)CN[C@H](C)[C@@H](O)[C@]1(C)O` [Example B-32] here?
Its IC50 is 23 µM.

For `CCOCCNC[C@]1(O)[C@H](C)O[C@@H](O[C@H]2[C@H](C)[C@@H](O[C@@H]3O[C@H](C)C[C@H](N(C)S(=O)(=O)Nc4ccc(C(F)(F)F)cc4)[C@H]3O)[C@](C)(O)C[C@@H](C)CN[C@H](C)[C@@H](O)[C@](C)(O)[C@@H](CC)OC(=O)[C@@H]2C)C[C@@]1(C)OC` [Example B-83], which IC50 is on record?
Its IC50 is 30 µM.

system: IL-6; test: Whole bovine blood assay, LPS-induced IL-6; format: cell-based; conditions: fresh whole bovine blood, LPS stimulant; top drug concentration 250 μM

`CCCNC[C@]1(O)[C@H](C)O[C@@H](O[C@H]2[C@H](C)[C@@H](O[C@@H]3O[C@H](C)C[C@H](N(C)S(=O)(=O)c4ccccc4NC4CC4)[C@H]3O)[C@](C)(O)C[C@@H](C)CN[C@H](C)[C@@H](O)[C@](C)(O)[C@@H](CC)OC(=O)[C@@H]2C)C[C@@]1(C)OC` [Example B-63] was tested. Which IC50 did it give?
Its IC50 is 10 µM.

How did the IC50 turn out when `CC[C@H]1OC(=O)[C@H](C)[C@@H](O[C@H]2C[C@@](C)(OC)[C@](O)(CNC3CCCCC3)[C@H](C)O2)[C@H](C)[C@@H](O[C@@H]2O[C@H](C)C[C@H](N(C)S(=O)(=O)Nc3ccc(C(F)(F)F)cc3)[C@H]2O)[C@](C)(O)C[C@@H](C)CN[C@H](C)[C@@H](O)[C@]1(C)O` [Example B-69] was run?
Its IC50 is 16 µM.

For `CC[C@H]1OC(=O)[C@H](C)[C@@H](O[C@H]2C[C@@](C)(OC)[C@](O)(CN3CCCCC3)[C@H](C)O2)[C@H](C)[C@@H](O[C@@H]2O[C@H](C)C[C@H](N(C)S(=O)(=O)c3ccc(C(F)(F)F)cc3)[C@H]2O)[C@](C)(O)C[C@@H](C)CN[C@H](C)[C@@H](O)[C@]1(C)O` [Example C-18], which IC50 is on record?
Its IC50 is 5 µM.

For `CC[C@H]1OC(=O)[C@H](C)[C@@H](O[C@H]2C[C@@](C)(OC)[C@](O)(CN3CCCCC3)[C@H](C)O2)[C@H](C)[C@@H](O[C@@H]2O[C@H](C)C[C@H](N(CC(C)C)S(=O)(=O)c3ccc(OC)cc3)[C@H]2O)[C@](C)(O)C[C@@H](C)CN[C@H](C)[C@@H](O)[C@]1(C)O` [Example C-43], which IC50 is on record?
The IC50 was 4 µM.

`CC[C@H]1OC(=O)[C@H](C)[C@@H](O[C@H]2C[C@@](C)(OC)[C@](O)(CNCCS(=O)(=O)c3ccccc3)[C@H](C)O2)[C@H](C)[C@@H](O[C@@H]2O[C@H](C)C[C@H](N(C)S(=O)(=O)Nc3ccc(C(F)(F)F)cc3)[C@H]2O)[C@](C)(O)C[C@@H](C)CN[C@H](C)[C@@H](O)[C@]1(C)O` [Example B-128] was tested. Which IC50 did it give?
Its IC50 is 23 µM.

Which IC50 does the source give for `CC[C@H]1OC(=O)[C@H](C)[C@@H](O[C@H]2C[C@@](C)(OC)[C@](O)(CN3CCCCC3)[C@H](C)O2)[C@H](C)[C@@H](O[C@@H]2O[C@H](C)C[C@H](N(C)S(=O)(=O)c3ccc(S(F)(F)(F)(F)F)cc3)[C@H]2O)[C@](C)(O)C[C@@H](C)CN[C@H](C)[C@@H](O)[C@]1(C)O` [Example C-47] here?
Its IC50 is 4 µM.

With `CCCNC[C@]1(O)[C@H](C)O[C@@H](O[C@H]2[C@H](C)[C@@H](O[C@@H]3O[C@H](C)C[C@H](N(C)S(=O)(=O)c4nccn4C)[C@H]3Oc3ccc(F)cc3C)[C@](C)(O)C[C@@H](C)CN[C@H](C)[C@@H](O)[C@](C)(O)[C@@H](CC)OC(=O)[C@@H]2C)C[C@@]1(C)OC` [Example B-121] as the compound, how does the IC50 read?
Its IC50 is 5 µM.
